Target: T1, human farnesoid X receptor (Homo sapiens, UniProt Q96RI1)
T1 construct: CMX-farnesoid X receptor (full length human farnesoid X receptor); expressed in transfected cells; host or cells: CV-1 African Green Monkey Kidney cells
T1 sequence (Q96RI1 1-472 isoform Q96RI1-2): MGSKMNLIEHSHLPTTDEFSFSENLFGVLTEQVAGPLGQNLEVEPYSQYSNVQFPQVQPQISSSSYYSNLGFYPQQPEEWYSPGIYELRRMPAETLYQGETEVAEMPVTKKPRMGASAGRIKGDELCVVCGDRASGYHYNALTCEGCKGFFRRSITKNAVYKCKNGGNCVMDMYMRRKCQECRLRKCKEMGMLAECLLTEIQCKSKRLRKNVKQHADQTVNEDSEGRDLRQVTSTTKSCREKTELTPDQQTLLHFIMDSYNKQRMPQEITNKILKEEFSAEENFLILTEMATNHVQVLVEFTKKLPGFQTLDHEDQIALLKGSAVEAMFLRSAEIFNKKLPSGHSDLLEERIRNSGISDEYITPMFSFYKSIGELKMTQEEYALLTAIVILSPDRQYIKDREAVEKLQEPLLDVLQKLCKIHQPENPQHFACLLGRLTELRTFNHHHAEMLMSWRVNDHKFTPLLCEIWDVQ
T1 sequence (P19793 1-462 partner): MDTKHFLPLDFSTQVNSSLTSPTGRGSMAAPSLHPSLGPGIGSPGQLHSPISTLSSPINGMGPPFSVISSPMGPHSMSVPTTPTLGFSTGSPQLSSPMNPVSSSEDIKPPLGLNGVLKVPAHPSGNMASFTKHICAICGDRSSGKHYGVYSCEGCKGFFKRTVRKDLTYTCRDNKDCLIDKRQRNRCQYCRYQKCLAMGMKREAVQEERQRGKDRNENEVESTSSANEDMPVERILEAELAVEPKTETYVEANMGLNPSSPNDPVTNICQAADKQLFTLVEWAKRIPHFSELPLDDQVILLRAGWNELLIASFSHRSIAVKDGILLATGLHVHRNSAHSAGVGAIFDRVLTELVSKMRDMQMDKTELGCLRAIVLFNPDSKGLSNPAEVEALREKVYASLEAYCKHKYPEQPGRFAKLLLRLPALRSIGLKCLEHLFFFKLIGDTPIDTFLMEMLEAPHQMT
Experiment: FXR in vitro assays (farnesoid X receptor/ECREx7 co-transfection assay, TR-FRET assay), Table I
Format: cell-based
Details: for EC50: agonist activity, one or more of the in vitro assays, read-out: EC50; for Emax: read-out: % Efficacy
Method in brief: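 CV-1 monkey kidney cells transfected for an FXR/ECREx7 luciferase co-transfection reporter; luciferase read 18-20 h later in lysates. 8-point dose-response at ½-log spacing, 4 wells per point; EC50/IC50 from four-parameter Hill fit, averaged over at least 3 independent experiments.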

| Compound | EC50 | Emax |
| --- | --- | --- |
| CC(C)OC(=O)C1=CN(C(=O)c2ccc(-n3cccn3)cc2)CC(C)(C)c2c1[nH]c1ccccc21 [Example 141, 1-methylethyl 1,1-dimethyl-3-{[4-(1H-pyrazol-1-yl)phenyl]carbonyl}-1,2,3,6-tetrahydroazepino[4,5-b]indole-5-carboxylate] | 0.01 to 0.1 µM | > 100% |
| CC(C)OC(=O)C1=CN(C(=O)c2cccc(C#N)c2)CC(C)(C)c2c1[nH]c1ccccc21 [Example 142, 1-methylethyl 3-[(3-cyanophenyl)carbonyl]-1,1-dimethyl-1,2,3,6-tetrahydroazepino[4,5-b]indole-5-carboxylate] | 0.01 to 0.1 µM | > 100% |
| CC(C)OC(=O)C1=CN(C(=O)c2ccc(Cl)cc2Cl)CC(C)(C)c2c1[nH]c1ccccc21 [Example 143, 1-methylethyl 3-[(2,4-dichlorophenyl)carbonyl]-1,1-dimethyl-1,2,3,6-tetrahydroazepino[4,5-b]indole-5-carboxylate] | 0.01 to 0.1 µM | > 100% |
| Cc1cc(C(=O)N2C=C(C(=O)OC(C)C)c3[nH]c4ccccc4c3C(C)(C)C2)ccc1F [Example 144, 1-methylethyl 3-[(4-fluoro-3-methylphenyl)carbonyl]-1,1-dimethyl-1,2,3,6-tetrahydroazepino[4,5-b]indole-5-carboxylate] | 0.001 to 0.01 µM | > 100% |
| CC(C)OC(=O)C1=CN(C(=O)c2c(F)ccc(Cl)c2F)CC(C)(C)c2c1[nH]c1ccccc21 [Example 145, 1-methylethyl 3-[(3-chloro-2,6-difluorophenyl)carbonyl]-1,1-dimethyl-1,2,3,6-tetrahydroazepino[4,5-b]indole-5-carboxylate] | 0.1 to 1 µM | > 100% |
| CC(C)OC(=O)C1=CN(C(=O)c2ccc(F)c(Cl)c2)CC(C)(C)c2c1[nH]c1ccccc21 [Example 147, 1-methylethyl 3-[(3-chloro-4-fluorophenyl)carbonyl]-1,1-dimethyl-1,2,3,6-tetrahydroazepino[4,5-b]indole-5-carboxylate] | 0.001 to 0.01 µM | > 100% |
| CC(C)OC(=O)C1=CN(C(=O)c2ccc(Cl)c(Cl)c2)CC(C)(C)c2c1[nH]c1ccccc21 [Example 148, 1-methylethyl 3-[(3,4-dichlorophenyl)carbonyl]-1,1-dimethyl-1,2,3,6-tetrahydroazepino[4,5-b]indole-5-carboxylate] | 0.01 to 0.1 µM | > 100% |
| CC(C)OC(=O)C1=CN(C(=O)c2cc(F)c(Cl)cc2F)CC(C)(C)c2c1[nH]c1ccccc21 [Example 149, 1-methylethyl 3-[(4-chloro-2,5-difluorophenyl)carbonyl]-1,1-dimethyl-1,2,3,6-tetrahydroazepino[4,5- ]indole-5-carboxylate] | 0.01 to 0.1 µM | > 100% |
| CC(C)OC(=O)C1=CN(C(=O)c2cccc(CN3CCN(S(C)(=O)=O)CC3)c2)CC(C)(C)c2c1[nH]c1ccccc21 [Example 151, 1-methylethyl 1,1-dimethyl-3-[(3-{[4-(methylsulfonyl)piperazin-1-yl]methyl}phenyl)carbonyl]-1,2,3,6-tetrahydroazepino[4,5-b]indole-5-carboxylate] | 0.1 to 1 µM | > 100% |
| CC(C)OC(=O)C1=CN(C(=O)c2cccc(CN3CCCCCC3)c2)CC(C)(C)c2c1[nH]c1ccccc21 [Example 152, 1-methylethyl 3-{[3-(azepan-1-ylmethyl)phenyl]carbonyl}-1,1-dimethyl-1,2,3,6-tetrahydroazepino[4,5-b]indole-5-carboxylate] | 0.01 to 0.1 µM | > 100% |
| CC(C)OC(=O)C1=CN(C(=O)c2cccc(CN3CCCN(C)CC3)c2)CC(C)(C)c2c1[nH]c1ccccc21 [Example 153, 1-methylethyl 1,1-dimethyl-3-({3-[(4-methyl-1,4-diazepan-1-yl)methyl]phenyl}carbonyl)-1,2,3,6-tetrahydroazepino[4,5-b]indole-5-carboxylate] | 1 to 10 µM | > 100% |
| CC(C)OC(=O)C1=CN(C(=O)c2ccc(F)c(Br)c2)CC(C)(C)c2c1[nH]c1ccccc21 [Example 154, 1-methylethyl 3-[(3-bromo-4-fluorophenyl)carbonyl]-1,1-dimethyl-1,2,3,6-tetrahydroazepino[4,5-b]indole-5-carboxylate] | 0.01 to 0.1 µM | > 100% |
| CC(C)OC(=O)C1=CN(C(=O)c2cc(CN3CCOCC3)ccc2F)CC(C)(C)c2c1[nH]c1ccccc21 [Example 155, 1-methylethyl 3-{[2-fluoro-5-(morpholin-4-ylmethyl)phenyl]carbonyl}-1,1-dimethyl-1,2,3,6-tetrahydroazepino[4,5-b]indole-5-carboxylate] | 0.1 to 1 µM | > 100% |
| CC(C)OC(=O)C1=CN(C(=O)c2ccc3c(c2)nnn3C)CC(C)(C)c2c1[nH]c1ccccc21 [Example 157, 1-methylethyl 1,1-dimethyl-3-[(1-methyl-1H-1,2,3-benzotriazol-5-yl)carbonyl]-1,2,3,6-tetrahydroazepino[4,5-b]indole-5-carboxylate] | 0.01 to 0.1 µM | > 100% |
| CC(C)OC(=O)C1=CN(C(=O)c2cccc(OCCN3CCOCC3)c2)CC(C)(C)c2c1[nH]c1ccccc21 [Example 160, 1-methylethyl 1,1-dimethyl-3-({3-[(2-morpholin-4-ylethyl)oxy]phenyl}carbonyl)-1,2,3,6-tetrahydroazepino[4,5-b]indole-5-carboxylate] | – | > 100% |
| CC1(C)CN(C(=O)c2ccc(F)c(F)c2)C=C(C(=O)NOCC(O)CO)c2[nH]c3ccccc3c21 (stereo not shown) [Example 161, 3-[(3,4-difluorophenyl)carbonyl]-N-[(2,3-dihydroxypropyl)oxy]-1,1-dimethyl-1,2,3,6-tetrahydroazepino[4,5-b]indole-5-carboxamide] | > 10 µM | – |
| CC1(C)CN(C(=O)c2ccc(F)c(F)c2)C=C(C(=O)NCC(O)CO)c2[nH]c3ccccc3c21 (stereo not shown) [Example 162, 3-[(3,4-difluorophenyl)carbonyl]-N-(2,3-dihydroxypropyl)-1,1-dimethyl-1,2,3,6-tetrahydroazepino[4,5-b]indole-5-carboxamide] | > 10 µM | – |
| CC1(C)CN(C(=O)c2ccc(F)c(F)c2)C=C(C(=O)NC(CO)CO)c2[nH]c3ccccc3c21 [Example 163, 3-[(3,4-difluorophenyl)carbonyl]-N-[2-hydroxy-1-(hydroxymethyl)ethyl]-1,1-dimethyl-1,2,3,6-tetrahydroazepino[4,5-b]indole-5-carboxamide] | 1 to 10 µM | > 100% |
| CC(C)OC(=O)C1=CN(C(=O)c2cccc(CN3CCN(C(=O)OC(C)(C)C)CC3)c2)CC(C)(C)c2c1[nH]c1ccccc21 [Example 166, 1-methyethyl 3-({3-[(4-{[(1,1-dimethylethyl)oxy]carbonyl}piperazin-1-yl)methyl]phenyl}carbonyl)-1,1-dimethyl-1,2,3,6-tetrahydroazepino[4,5-b]indole-5-carboxylate] | 0.1 to 1 µM | > 100% |
| CC(C)OC(=O)C1=CN(C(=O)c2cccc(CN3CCN(S(=O)(=O)c4ccccc4)CC3)c2)CC(C)(C)c2c1[nH]c1ccccc21 [Example 167, 1-methylethyl 1,1-dimethyl-3-[(3-{[4-(phenylsulfonyl)piperazin-1-yl]methyl}phenyl)carbonyl]-1,2,3,6-tetrahydroazepino[4,5-b]indole-5-carboxylate] | 0.1 to 1 µM | > 100% |
| CC(C)OC(=O)C1=CN(C(=O)c2cccc(CN3CCN(S(=O)(=O)c4ccc(F)cc4)CC3)c2)CC(C)(C)c2c1[nH]c1ccccc21 [Example 168, 1-methylethyl 3-{[3-({4-[(4-fluorophenyl)sulfonyl]piper-azin-1-yl}methyl)phenyl]carbonyl}-1,1-dimethyl-1,2,3,6-tetrahydroazepino[4,5-b]indole-5-carboxylate] | 0.1 to 1 µM | > 100% |
| CCS(=O)(=O)N1CCN(Cc2cccc(C(=O)N3C=C(C(=O)OC(C)C)c4[nH]c5ccccc5c4C(C)(C)C3)c2)CC1 [Example 172, 1-methylethyl 3-[(3-{[4-(ethylsulfonyl)piperazin-1-yl]methyl}phenyl)carbonyl]-1,1-dimethyl-1,2,3,6-tetrahydroazepino[4,5-b]indole-5-carboxylate] | 0.1 to 1 µM | > 100% |
| CC(C)OC(=O)C1=CN(C(=O)c2cccc(CN3CCN(C(=O)C4CC4)CC3)c2)CC(C)(C)c2c1[nH]c1ccccc21 [Example 173, 1-methylethyl 3-[(3-{[4-(cyclopropylcarbonyl)piper-azin-1-yl]methyl}phenyl)carbonyl]-1,1-dimethyl-1,2,3,6-tetrahydroazepino[4,5-b]indole-5-carboxylate] | 0.1 to 1 µM | > 100% |
